The subject of one data set is Target C. Nature of the data set: HiBiT protein abundance assay, Target C (K562 HiBiT knock-in). Type of data set: cell-based, human. The following applies: HiBiT knock-in K562 cells, 24 hours, top dose 10 μM. The essentials: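 K562 HiBiT knock-in cells (10000/well) were treated 24 h at 37° C with a 10-point 3-fold dilution series (top 10 μM final, ≤0.25% DMSO). HiBiT luminescence was read after lytic LgBiT detection. Percent response used unmodified K562 and DMSO-treated knock-in controls, and IC50 came from a four-parameter fit at 50% of untreated.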

The subject of the next data set is K562 cells. Nature of the data set: Cell Titer Glo 2.0 cell viability (toxicity) assay, K562. Conditions: 500 cells/well, 72 hours.
The next data set has as its system MYB mRNA. The experiment in a line: RT-qPCR splicing assay, MYB mRNA canonical (CJ) and alternative (AJ) junction. It is filed as cell-based, human. The following applies: Homo sapiens; for AC50: MYB alternative junction mRNA, read-out: MYB AJ (increase in AJ mRNA, AC50). The essentials: (§1)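 Junction-specific RT-qPCR read-out: CJ and AJ isoform levels, housekeeper-normalized (GAPDH/GUSB/PPIA), ΔΔCt vs DMSO, converted to RQ then % response. Cells: A673 (DMEM/10% FBS, adhered 24 h) or K562 (IMDM/10% FBS). Compound 11-pt 3-fold, top 10 uM, 24 h, 37 °C.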

The subject of another data set is HTT. Nature of the data set: HiBiT protein abundance assay, HTT (K562 HiBiT knock-in). Conditions: HiBiT knock-in K562 cells, 24 hours, top dose 10 μM. It is filed as cell-based, human. The method, boiled down:
(§2)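 Endogenously HiBiT-tagged K562 lines were treated for 24 h at 37 °C with 10-point 3-fold dilutions (top 10 μM final, DMSO ≤0.25%). Lytic LgBiT complementation luminescence was normalized between unmodified K562 (PC) and DMSO-treated tagged cells (NC); IC50 was interpolated at 50% from a four-parameter logistic fit.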

The next data set has as its system SMN2 mRNA. The experiment in a line: RT-qPCR splicing assay, SMN2 mRNA. It is filed as cell-based, human. Conditions: Homo sapiens, canonical junction qPCR panel, Table 4; read-out: SMN2 IC50 (decrease in CJ mRNA levels). The essentials: as §1
The subject of the next data set is HTT mRNA. Nature of the data set: RT-qPCR splicing assay, HTT mRNA canonical (CJ) and alternative (AJ) junction. Type of data set: cell-based, human. Conditions: Homo sapiens; for AC50: HTT alternative junction mRNA, read-out: HTT AJ (increase in AJ mRNA, AC50). The method, boiled down: as §1
In another data set the test system is MYB. Nature of the data set: HiBiT protein abundance assay, MYB (K562 HiBiT knock-in). It is filed as cell-based, human. Conditions: HiBiT knock-in K562 cells, 24 hours, top dose 10 μM. The essentials: as §2
Setting [1] is: MYB canonical junction mRNA, RT-qPCR, read-out: MYB CJ (decrease in CJ mRNA levels, IC50).
[2] abbreviates: canonical junction qPCR panel, Table 4, read-out: MYB IC50 (decrease in CJ mRNA levels).
[3] abbreviates: HTT canonical junction mRNA, RT-qPCR, read-out: HTT CJ (decrease in CJ mRNA levels, IC50).
[4] abbreviates: canonical junction qPCR panel, Table 4, read-out: HTT IC50 (decrease in CJ mRNA levels).

Where two headings read alike, the source gives them in different places.

As to `Cn1cc2cc(O)c(-c3ccc4nc(C5CCNCC5)ccc4n3)cc2n1` [Compound 146], the IC50 lay in the range of 1000 to 10000 nM in the data set on Target C; 1000 to 10000 nM with MYB mRNA (setting [1]); 1000 to 10000 nM in the data set on MYB mRNA (setting [2]); 1000 to 10000 nM with HTT; 100 to 1000 nM in the data set with SMN2 mRNA; 1000 to 10000 nM in the data set on HTT mRNA (setting [3]). Moreover, the IC50 in the data set on HTT mRNA (setting [4]) and in the data set with MYB was 1000 to 10000 nM throughout. Further, the “Effect of Exemplary Compounds on Cell Viability, K562” value (“Effect of Exemplary Compounds” for short) in the data set on K562 cells is given as “C (C represents 1000-9999 nM)”. The half-maximal activity concentration (AC50) in the data set with MYB mRNA (RT-qPCR) and in the data set on HTT mRNA (RT-qPCR) was 1000 to 10000 nM in each case.
In the case of `Cc1nc2cc(O)c(-c3ccc4nc(C5CCNCC5)ccc4n3)cc2s1` [Compound 148], the half-maximal inhibitory concentration (IC50) in the data set on Target C is 1000 to 10000 nM; with MYB mRNA (setting [1]) it was 100 to 1000 nM; with MYB mRNA (setting [2]), 100 to 1000 nM; in the data set with HTT, 1000 to 10000 nM; in the data set on SMN2 mRNA, less than 100 nM; in the data set on HTT mRNA (setting [3]), 1000 to 10000 nM. Further, the IC50 in the data set with HTT mRNA (setting [4]) and with MYB was 1000 to 10000 nM each time. Besides, the “Effect of Exemplary Compounds” value in the data set on K562 cells was “B (B represents 100-1000 nM)”. The values for the AC50 with MYB mRNA (RT-qPCR) and in the data set on HTT mRNA (RT-qPCR) were 100 to 1000 nM and 1000 to 10000 nM, respectively.
With `Cc1cn2cc(-c3ccc4nc(C5CCNCC5)ccc4n3)c(O)cc2n1` [Compound 149], the half-maximal inhibitory concentration (IC50) in the data set on Target C was greater than 10000 nM; with MYB mRNA (setting [1]), 1000 to 10000 nM; with MYB mRNA (setting [2]) it was 1000 to 10000 nM; with HTT it was 1000 to 10000 nM; with SMN2 mRNA, 100 to 1000 nM; in the data set on HTT mRNA (setting [3]), greater than 10000 nM. The results for the IC50 with HTT mRNA (setting [4]) and with MYB were greater than 10000 nM and 1000 to 10000 nM, respectively. In addition, the “Effect of Exemplary Compounds” value with K562 cells is “C (C represents 1000-9999 nM)”. Moreover, the concentration at half-maximal activity (AC50) in the data set with MYB mRNA (RT-qPCR) and in the data set on HTT mRNA (RT-qPCR) was greater than 10000 nM each time.
On to `Cc1cn2nc(-c3ccc4nc(C5CCNCC5)ccc4n3)c(O)c2c(C)n1` [Compound 150], for which the IC50 in the data set with Target C, in the data set with MYB mRNA (setting [1]), with MYB mRNA (setting [2]), in the data set on HTT, in the data set with SMN2 mRNA and in the data set with HTT mRNA (setting [3]) was less than 100 nM each time. Also, the IC50 with HTT mRNA (setting [4]) and in the data set with MYB was less than 100 nM in each case. Also, the “Effect of Exemplary Compounds” value in the data set on K562 cells was “A (A represents <100 nM)”. Moreover, the AC50 in the data set with MYB mRNA (RT-qPCR) and in the data set on HTT mRNA (RT-qPCR) was less than 100 nM throughout.
For the compound `c1c[nH]c(-c2ccc3nc(C4CCNCC4)ccc3n2)n1` [Compound 152], the IC50 in the data set with Target C is greater than 10000 nM; in the data set on MYB mRNA (setting [1]), greater than 10000 nM; in the data set on MYB mRNA (setting [2]), greater than 10000 nM; with HTT, greater than 10000 nM; in the data set on SMN2 mRNA, 1000 to 10000 nM; in the data set on HTT mRNA (setting [3]) it was greater than 10000 nM. Moreover, the IC50 in the data set on HTT mRNA (setting [4]) and in the data set with MYB was greater than 10000 nM each time. In the data set on K562 cells, the “Effect of Exemplary Compounds” value is recorded as “D (D represents greater than 10 μM in K562 cells)”. Also, the AC50 with MYB mRNA (RT-qPCR) and in the data set on HTT mRNA (RT-qPCR) was greater than 10000 nM throughout.
On to `Cn1cc2cc(-c3ccc4nc(N5CC[C@@H](NC(C)(C)C)C5)ccc4n3)c(O)cc2n1` [Compound 153], for which the 50% inhibitory concentration (IC50) with Target C, in the data set on MYB mRNA (setting [1]), with MYB mRNA (setting [2]), in the data set with HTT, in the data set with SMN2 mRNA and with HTT mRNA (setting [3]) was less than 100 nM each time. Also, the IC50 in the data set with HTT mRNA (setting [4]) and in the data set with MYB was less than 100 nM throughout. In addition, the “Effect of Exemplary Compounds” value with K562 cells was “B (B represents 100-1000 nM)”. Further, the AC50 with MYB mRNA (RT-qPCR) and with HTT mRNA (RT-qPCR) was less than 100 nM in each case.
As for `Cn1cc2cc(-c3ccc4nc(N5CC[C@H](NC(C)(C)C)C5)ccc4n3)c(O)cc2n1` [Compound 154], the IC50 is less than 100 nM in the data set with Target C; 100 to 1000 nM with MYB mRNA (setting [1]); 100 to 1000 nM in the data set with MYB mRNA (setting [2]); less than 100 nM in the data set on HTT; less than 100 nM in the data set with SMN2 mRNA; less than 100 nM in the data set with HTT mRNA (setting [3]). The IC50 in the data set with HTT mRNA (setting [4]) and in the data set on MYB was less than 100 nM in each case. The “Effect of Exemplary Compounds” value in the data set on K562 cells is recorded as “A (A represents <100 nM)”. For the same compound, the concentration at half-maximal activity (AC50) in the data set on MYB mRNA (RT-qPCR) and with HTT mRNA (RT-qPCR) was less than 100 nM in each case.

The values above are taken from patent US20250092065A1, “2-(INDAZOL-5-YL)-6-(PIPERIDIN-4-YL)-1,7-NAPHTHYRIDINE DERIVATIVES AND RELATED COMPOUNDS AS MODULATORS FOR SPLICING NUCLEIC ACIDS AND FOR THE TREATMENT OF PROLIFERATIVE DISEASES” (REMIX THERAPEUTICS INC., priority 2022, published 2025).
